These results are taken from ChEMBL document CHEMBL5729705, “Amide compounds for treatment of immune and inflammatory disorders” (2023).

The test has as its target Complement factor D (Homo sapiens, UniProt P00746). Nature of the test: Human Factor D Assay: Human Factor D (purified from human serum, Complement Technology, Inc.) at 80 nM final concentration is incubated with test compound at various concentrations for 5 minutes at room temperature in 50 mM Tris, 1M NaCl, pH 7.5. A synthetic substrate Z-L-Lys-SBzl and DTNB (Ellman's reagent) are added to final concentrations of 100 μM each. Absorbance at 405 nm (A405) is recorded at 30 second intervals for 30 minutes using a microplate spectrophotometer. IC50values are calculated by nonlinear regression of complement Factor D reaction rates as a function of test compound concentration.

Molecules are shown by their SMILES.

Chain of Complement factor D (P00746 whole entry): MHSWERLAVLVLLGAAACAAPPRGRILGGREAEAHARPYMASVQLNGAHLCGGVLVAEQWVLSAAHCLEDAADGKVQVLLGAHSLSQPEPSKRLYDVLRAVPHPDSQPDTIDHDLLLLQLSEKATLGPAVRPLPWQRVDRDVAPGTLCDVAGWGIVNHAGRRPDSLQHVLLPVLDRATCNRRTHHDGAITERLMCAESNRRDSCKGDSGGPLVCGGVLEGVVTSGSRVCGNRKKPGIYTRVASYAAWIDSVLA

With `Cc1cccc(CC(O)[C@@H]2C[C@@H](F)CN2C(=O)Cn2cc(C(N)=O)c3cc(C(=O)NS(=O)(=O)C4CC4)ccc32)n1` (some centres not stated), the IC50 was > 10 µM.

Regarding `Cc1cccc(CC(O)[C@H]2C[C@@H](F)CN2C(=O)Cn2cc(C(N)=O)c3cc(C(=O)NS(=O)(=O)C4CC4)ccc32)n1` (some centres not stated), the IC50 is > 10 µM.

The term IC50 denotes the concentration at which inhibition is half-maximal.
